{"source": "patent US11590110B2", "about": "“Compositions and methods for reactivating latent immunodeficiency virus using a GSK-3 inhibitor” (priority 2017, dated 2023)", "key": {"[1]": {"settings": "cited from earlier work"}, "[2]": {"test_system": "latent HIV-1 in GALT cultures from HIV-positive donors on suppressive ART", "test": "Example 5: latency reversion in gut-associated lymphoid tissue (GALT) cultures, ddPCR", "type": "cell-based", "method": "PBMCs and CD4^+ T cells from HIV-positive donors were cultured and treated in the presence of 5 μM saquinavir. For gut-associated lymphoid tissue (GALT) cells, to remove the epithelium and epithelial cells, 30 tissue biopsy tissue pieces were incubated in pre-warmed buffer containing 10 mM DTT, 5 mM EDTA, 10 mM HEPES and 5% FBS for 20 minutes at 37° C. under continuous rotation, vortexed and the supernatant aspirated. Tissue pieces were then incubated for a second time in the same pre-warmed buffer for a further 20 minutes at 37° C. under continuous rotation. The sample was again vortexed, and then rinsed for 20 minutes at 37° C. under continuous rotation with RMPI, 10 mM HEPES and 5% FBS. To then isolate lymphocytes from the lamina propria, a second, pre-warmed buffer containing RPMI, 10 mM HEPES, 7.5 µg/ml DNAse and 5% FBS was applied to the tissue pieces, and these were again incubated for 20 minutes at 37° C. under continuous rotation. […]\n5 million resting CD4^+ T lymphocytes were plated and either left unstimulated (media alone plus DMSO), stimulated with anti-CD3/CD28 coated or incubated with LRAs for 48 hours. […] Subsequently, ddPCR was applied to quantify pre-amplified cDNA. […] Finally, samples were amplified on a BioRad C1000 Thermocycler and analyzed using a BioRad QX100 ddPCR Reader. […]"}}, "note": "Where two headings read alike, the source gives them in different places.", "data": [{"compound": "O=c1sn(-c2cccc3ccccc23)c(=O)n1Cc1ccccc1", "note": "[Tideglusib, 4-benzyl-2-(naphthalen-1-yl)-1,2,4-thiadiazolidine-3,5-dione]", "values": [{"measurement": "side effects / tolerability in humans", "setting": "[1]", "value": "safe (i.e., non-toxic) and well tolerated in humans"}, {"measurement": "side effects / tolerability in humans", "setting": "[1]; listed as tideglusib", "value": "very low incidence of side-effects"}, {"measurement": "moderate, asymptomatic and fully reversible increase of transaminase, share of cases", "setting": "[1]; prolonged treatment", "value": 30, "unit": "%"}, {"measurement": "virus-associated mRNA in culture supernatant, median value", "setting": "[2]; 1 μM, 24 hours, relative to untreated control", "value": 20.69, "unit": "fold"}, {"measurement": "virus release vs untreated control", "setting": "[2]; GALT cultures", "value": "over 20 fold"}]}]}
